{"source": "patent US20060292151A1", "about": "“L-SIGN polymorphisms and methods involving use of same” (priority 2004, published 2006)", "tested_on": "L-SIGN alleles: L-SIGN-4, -5, -7 and -9", "sequence (Q9H2X3 250-399 limits assumed)": "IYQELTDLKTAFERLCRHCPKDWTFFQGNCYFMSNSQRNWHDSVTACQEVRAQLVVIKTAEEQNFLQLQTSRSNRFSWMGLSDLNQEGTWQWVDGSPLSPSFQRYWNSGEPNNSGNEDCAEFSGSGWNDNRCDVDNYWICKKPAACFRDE", "test": "Inhibition of L-SIGN-mediated trans-infection of Hep3B cells by HCVpp", "assay_type": "cell-based, human", "conditions": "mannan 20 μg/ml", "description": "FIG. 9. Inhibition of trans-infection with agents to the CRD of L-SIGN. HeLa or HeLa-SIGN transfectants stably expressing the indicated polymorphic forms of L-SIGN were incubated with mannan (20 μg/ml), anti-CRD mAbs (120604 and 120612, 10 μg/ml), or IgG2a isotype-control IgG (10 μg/ml) prior to addition to HCVpp. Cells were incubated an additional 2 h, washed and combined with Hep3B cells. Cultures were maintained for 48 h prior to lysis and measurement of luciferase activity. The data represent the percent of trans-infection relative to that observed in the absence of inhibitor. The values were calculated as (net RLU in the presence of inhibitor)/(net RLU in the absence of inhibitor)×100, where net RLU represents the difference in RLU values observed between transfected and parental HeLa cells. Negative values are omitted for clarity. The data represent the average of 3 independent measurements. […]\nParental HeLa cells and HeLa-SIGN transfectants (2×10^4) were incubated with 200 μl of viral supernatant for 2 h at 37° C. […] Luciferase activity was measured in cell lysates using the Luciferase Assay System (Promega, Madison, Wis.) according to the manufacturer's instructions. […] Data were analyzed for statistical significance using 2-sided t-tests and a significance level of P<0.05 unless otherwise indicated. […]"}
{"substance": "mannan", "values": [{"measurement": "average level of inhibition of trans-infection across the different isoforms", "result": 77, "unit": "%"}, {"measurement": "level of trans-infection inhibited (range over L-SIGN-4, -5, -7 and -9)", "setting": "30 min before HCVpp, Hep3B co-culture 48 h, luciferase", "result": "47-95%"}]}
